Molecular target: T1, glucocorticoid receptor (rbGR) (Oryctolagus cuniculus, UniProt P59667)
T1 construct: cytosol containing PR or GR were prepared in TEGMD buffer; from tissue; host or cells: thymus of estradiol-primed immature rabbits (cytosol)
T1 sequence (P59667 1-772): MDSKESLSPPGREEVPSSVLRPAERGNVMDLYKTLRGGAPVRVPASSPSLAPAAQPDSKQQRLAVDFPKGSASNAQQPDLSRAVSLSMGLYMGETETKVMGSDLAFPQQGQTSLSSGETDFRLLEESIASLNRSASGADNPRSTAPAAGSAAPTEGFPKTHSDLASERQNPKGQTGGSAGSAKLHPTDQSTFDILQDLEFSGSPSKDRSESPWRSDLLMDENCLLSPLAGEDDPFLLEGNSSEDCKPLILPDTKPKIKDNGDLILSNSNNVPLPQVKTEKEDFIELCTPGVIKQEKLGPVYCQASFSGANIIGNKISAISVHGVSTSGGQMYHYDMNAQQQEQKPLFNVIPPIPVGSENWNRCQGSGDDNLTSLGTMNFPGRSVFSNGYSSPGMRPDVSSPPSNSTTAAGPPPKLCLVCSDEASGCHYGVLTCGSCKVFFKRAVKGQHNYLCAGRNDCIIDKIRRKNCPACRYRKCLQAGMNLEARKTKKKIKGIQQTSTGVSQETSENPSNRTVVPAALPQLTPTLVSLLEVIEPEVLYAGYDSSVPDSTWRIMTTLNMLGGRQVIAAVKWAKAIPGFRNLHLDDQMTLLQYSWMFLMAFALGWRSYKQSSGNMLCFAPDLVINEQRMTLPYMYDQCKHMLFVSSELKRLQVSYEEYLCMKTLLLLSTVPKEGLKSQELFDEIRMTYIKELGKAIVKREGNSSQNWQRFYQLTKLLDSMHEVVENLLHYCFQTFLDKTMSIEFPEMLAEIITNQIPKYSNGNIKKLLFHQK
Test: Glucocorticoid receptor binding / anti-glucocorticoid receptor activity
Design: species or system rabbit
Procedure: Certain antiprogestins were tested in receptor-binding assays for their ability to bind rabbit progesterone receptor (rbPR) and glucocorticoid receptor (rbGR). […] For PR binding, the cytosol was incubated with 6 nM 1,2-[^3H]progesterone (50.0 Ci/mmole) and competitors were added at concentrations from 2 to 100 nM. For binding to GR, the cytosol was incubated with 6 nM 6,7-[^3H]-dexamethasone (40 Ci/mmol) and test compounds were added at concentrations from 20 to 100 nM. After overnight incubation at 4 C, bound and unbound [^3H] steroids were separated by addition of dextran-coated charcoal and centrifugation at 2100×g for 15 min at 4 C. Supernatants containing the [3H]-steroid receptor complexes were decanted into vials containing 4 ml Optifluor (Packard Instrument Co.), vortexed, equilibrated in a liquid scintillation counter for 30 minutes and then counted for 2 minutes. […] The standards for the PR and GR assays were unlabeled progesterone and dexamethasone, respectively.

Which “anti-glucocorticoid receptor activity / glucocorticoid receptor binding” value does the source give for `COCC(=O)[C@@]1(OC(C)=O)CC[C@H]2[C@@H]3CCC4=CC(=O)CCC4=C3[C@@H](c3ccc(N(C)C)cc3)C[C@@]21C` [CDB-4124, 21-methoxy-17α-acetoxy-11β-(4 N,N-dimethylaminophenyl)-19-norpregna-4,9-diene-3,20-dione] here?
Its value is “minimal anti-glucocorticoid receptor activity”.

— patent US20090118253A1, “COMPOSITIONS AND METHODS FOR TREATING DYSFUNCTIONAL UTERINE BLEEDING” (REPROS THERAPEUTICS INC., priority 2007, published 2009)
